Laboratory results taken from a melting point compilation (Tetko et al.; mined from patent text by program, amines drawn as free bases though some values may be those of a salt).

Question: With `Cn1ccc2cc(N3Cc4c(N)cccc4C3=O)ccc21` as the molecule, how does the melting point read?
Answer: 198 to 203 °C

Question: Which melting point does the source give for `O=c1c(O)c(-c2ccc[nH]2)oc2ccccc12` here?
Answer: 201 to 203 °C

Question: For `CC(=O)N(C)c1cc2c(nc(C)n2C)c(O)c1CN(C)C`, which melting point is on record?
Answer: 181 to 184 °C

Question: Which melting point does the source give for `CCCCCCCCc1c(N)nc(S(C)(=O)=O)nc1CC` here?
Answer: 90 to 92 °C

Question: Which melting point does the source give for `CC1=Nc2cc(Cl)c(S)cc2S(=O)(=O)N1` here?
Answer: 304 to 305 °C

Question: Which melting point does the source give for `Cc1cc(C#N)cc(-c2ccc3c(c2)C(C)(C)OC(=S)N3)c1` here?
Answer: 230 to 231 °C

Question: For `Cc1ccc2scc(CCNc3ncnc4c3ncn4C3OC(CO)C(O)C3O)c2c1` (stereo unspecified), which melting point is on record?
Answer: 158 to 160 °C

Question: Which melting point does the source give for `COC(=O)C(C)(C)C(=O)c1ccc(-n2cncn2)cc1` here?
Answer: 84 to 85 °C

Question: Which melting point does the source give for `N#Cc1ccc(C(=O)C=Cc2ccccc2)cc1` here?
Answer: 120 °C

Question: For `N#CSCC(=O)c1cccc(Br)c1`, which melting point is on record?
Answer: 91 to 93 °C

Question: With `COc1ccc(Nc2ccccc2)c2c1c(CCN(C)C)cn2C` as the molecule, how does the melting point read?
Answer: 158 to 160 °C

Question: Which melting point does the source give for `CCCCCOc1ccc(C(=O)Nc2ccc3cc(CN4CCCC4)cnc3c2C)c(F)c1` here?
Answer: 143 °C

Question: Which melting point does the source give for `Clc1ccc(C2CCN(CCCOc3ccc4c(c3)CNCCC4)CC2)cc1` here?
Answer: 97 to 99 °C

Question: For `NC1=NC2(CN(C(=O)c3cccs3)C2)Nc2cccc(F)c21`, which melting point is on record?
Answer: 214 to 215 °C

Question: Which melting point does the source give for `COc1ccccc1NC(=O)Nc1nc(Oc2ccc3ccccc3c2)nc(N(CCC(=O)O)Cc2cccc(C)c2)n1` here?
Answer: 105 to 125 °C

Question: With `CCn1ncc2c1ncc1c(SC)nc3cc(C)nn3c12` as the molecule, how does the melting point read?
Answer: 168 to 169 °C

Question: With `Cc1cc([N+](=O)[O-])ccc1N=C1SCC2(CCCC2)N1CC1CCCCC1` as the molecule, how does the melting point read?
Answer: 85 to 87 °C

Question: With `O=C(O)C(Cl)(Cl)CCCCCCCCCCCCC(Cl)(Cl)C(=O)O` as the molecule, how does the melting point read?
Answer: 114 °C

Question: For `Cc1nc(-c2ccc(N3CC(C(=O)O)OC3=O)cc2)no1` (stereo unspecified), which melting point is on record?
Answer: 215 to 218 °C

Question: With `O=C1Cc2cc(C(=O)CCl)ccc2N1` as the molecule, how does the melting point read?
Answer: 236 to 239 °C

Question: Which melting point does the source give for `CCc1c(Cc2[nH]c(C=O)c(C)c2CCCOC(C)=O)[nH]c(Cc2[nH]c(C=O)c(C)c2CCCOC(C)=O)c1CC` here?
Answer: 179 to 181 °C

Question: With `Cc1nc(COC(=O)c2cccnc2C#N)cs1` as the molecule, how does the melting point read?
Answer: 93 °C

Question: Which melting point does the source give for `Cn1c(COc2ccc(CC3SC(=O)NC3=O)cc2)nc2ccc(Oc3ccc(NC(=O)NC45CC6CC(CC(C6)C4)C5)cc3)cc21` (stereo unspecified) here?
Answer: 164 to 167 °C

Question: For `CC(=O)OCCn1c(=O)c(C#N)c(N2CCN(C(=O)c3cccs3)CC2)c2cccnc21`, which melting point is on record?
Answer: 189 °C

Question: With `O=C(c1ccco1)N1CCN(c2nc3c(c(-c4ccc(F)cc4)n2)CCC3)CC1` as the molecule, how does the melting point read?
Answer: 124 to 125 °C

Question: With `COC1CCC(CCNC(=O)n2cc(F)c(=O)[nH]c2=O)CC1OC` (stereo unspecified) as the molecule, how does the melting point read?
Answer: 129 °C

Question: For `Cn1c(COc2ccc(CC3SC(=O)NC3=O)cc2)nc2ccc(Oc3cccc(NC(=O)Nc4ccc(C(F)(F)F)cc4)c3)cc21` (stereo unspecified), which melting point is on record?
Answer: 192 to 194 °C

Question: With `C#CCN1CCNC1=C[N+](=O)[O-]` as the molecule, how does the melting point read?
Answer: 146 to 147 °C

Question: For `Cc1cc2c(-c3ccccc3F)c(C(=O)O)oc(=O)c2cc1C`, which melting point is on record?
Answer: 214 to 217 °C

Question: With `CCC(CC)Nc1c([N+](=O)[O-])cc(C)c(COC(=O)NC)c1[N+](=O)[O-]` as the molecule, how does the melting point read?
Answer: 117 to 120 °C

Question: For `COc1cc(-c2nc(NC(=O)c3cc4ccccc4n3CCCCCC(=O)O)sc2CCC2CCCCC2)c(OC)cc1Cl`, which melting point is on record?
Answer: 121 °C

Question: For `Cc1ccc(S(=O)(=O)C=C(Cl)C#N)cc1`, which melting point is on record?
Answer: 78 °C

Question: Which melting point does the source give for `Cc1c(C(F)(F)F)cnn(-c2cc(OCC=O)c(Cl)cc2F)c1=O` here?
Answer: 107 °C

Question: With `Clc1cc2c(cc1Cl)CC=C2` as the molecule, how does the melting point read?
Answer: 76 °C

Question: Which melting point does the source give for `COc1ccc(-c2cc3ccccc3[nH]2)c(O)c1` here?
Answer: 195 °C

Question: Which melting point does the source give for `CC(CS)C(=O)N(CC(=O)O)CC1CCCO1` (stereo unspecified) here?
Answer: 128 to 130 °C

Question: Which melting point does the source give for `COc1cc(Nc2c(C#N)cnc3cc(-c4cccc(CN5CCOCC5)c4)c(OC)cc23)c(Cl)cc1Cl` here?
Answer: 155 to 158 °C

Question: For `COc1cc(N2CCC(N3CCCN(C)CC3)CC2)ccc1Nc1ncc2ccc(-c3ccccc3N(C)S(C)(=O)=O)n2n1`, which melting point is on record?
Answer: 100 to 109 °C

Question: With `COC(=O)c1cccc2c(Br)c(OC)ccc12` as the molecule, how does the melting point read?
Answer: 119 °C

Question: With `CCOC(=O)N1CCN(c2cc3nc(C(C)(C)C)sc3cc2N=C=S)CC1` as the molecule, how does the melting point read?
Answer: 131 to 134 °C

Question: With `COc1ccc(C2=NN(C3CCN(S(=O)(=O)c4cccc(C#N)c4)CC3)C(=O)C(C)(C)C2)cc1OC` as the molecule, how does the melting point read?
Answer: 158 to 160 °C

Question: Which melting point does the source give for `COC(=O)c1cccc(-n2cnc3cc(-c4ccno4)ccc32)c1` here?
Answer: 190 to 191 °C

Question: With `CCCN[C@H]1CC[C@H](Oc2ccc3[nH]ncc3c2SC)CC1` as the molecule, how does the melting point read?
Answer: 168 to 169 °C

Question: For `COC1CCN(C(=O)COc2cc(-c3ccccc3)nc3ccccc23)CC1`, which melting point is on record?
Answer: 96 °C

Question: With `O=C(Nc1ccc(Oc2ccccc2)cc1)N1CCN(c2ncnc3cc(OCc4ccccc4)c(OCc4ccccc4)cc23)CC1` as the molecule, how does the melting point read?
Answer: 137 to 138 °C

Question: Which melting point does the source give for `CC(=O)N(C)N(C(=O)OC(C)(C)C)c1ccc(CC#N)cc1` here?
Answer: 74 to 75 °C

Question: With `CC(C)(C)c1ccc(-c2cccc(-c3ccccc3)c2CC(=O)NC(=N)N)cc1` as the molecule, how does the melting point read?
Answer: 171 to 174 °C

Question: For `COc1ccc2c(=O)c3c(Cl)ccc([N+](=O)[O-])c3oc2c1`, which melting point is on record?
Answer: 211 to 213 °C

Question: For `O=c1oc(-c2cccc(Cl)c2)cc(O)c1SCc1ccccc1`, which melting point is on record?
Answer: 136 to 137 °C

Question: For `CCOC(=O)c1cnn(-c2c(F)cc(C(F)(F)F)cc2Cl)c1N`, which melting point is on record?
Answer: 147 to 149 °C

Question: With `O=C(O)C=Cc1cc([N+](=O)[O-])ccc1Br` as the molecule, how does the melting point read?
Answer: 185 °C

Question: Which melting point does the source give for `COc1cc(N)c(Cl)cc1C(=O)Cl` here?
Answer: 242 °C

Question: Which melting point does the source give for `CC(=O)Nc1nc(CCc2ccc(N)cc2)c(-c2ccc(S(C)(=O)=O)cc2)s1` here?
Answer: 202 to 204 °C

Question: With `CCCCCN1Cc2cccc(S(=O)(=O)NC(=O)Nc3nc(OC)cc(OC)n3)c2S1(=O)=O` as the molecule, how does the melting point read?
Answer: 197 to 203 °C

Question: Which melting point does the source give for `COc1nc2cc([N+](=O)[O-])c(C)c(C(=O)Nc3ccccc3)c2nc1OC` here?
Answer: 238 to 240 °C

Question: Which melting point does the source give for `COC1=C(OC)C(=O)C(CCCCCCCCCCO)=C(C)C1=O` here?
Answer: 52 °C

Question: Which melting point does the source give for `CC(C)(C)OC(=O)NCC(O)c1ccco1` (stereo unspecified) here?
Answer: 89 to 90 °C

Question: Which melting point does the source give for `Cc1cc(-c2ccc(Cl)c(Cl)c2)nc(-c2cccc(-c3cccc(S(N)(=O)=O)c3)c2)n1` here?
Answer: 206 °C

Question: Which melting point does the source give for `CC1(C)CCC(C)(C)c2cc3[nH]c(SCc4ccccn4)nc3cc21` here?
Answer: 199 to 200 °C

Question: Which melting point does the source give for `O=C(O)/C=C/C=C(c1ccc(F)cc1)c1ccc(F)cc1` here?
Answer: 186 to 188 °C

Question: Which melting point does the source give for `O=C1Nc2ccc(Cl)cc2N2CCNCC12` (stereo unspecified) here?
Answer: 300 to 303 °C

Question: With `Cc1c(CO)cccc1NC(=O)CC12CC3CC(CC(C3)C1)C2` as the molecule, how does the melting point read?
Answer: 205 to 206 °C

Question: With `Cc1cc(C2=C(C=CC3CC(O)CC(=O)O3)C(C)(C)CC(OC(=O)Nc3ccccc3)C2)ccc1F` (stereo unspecified) as the molecule, how does the melting point read?
Answer: 73 to 75 °C

Question: Which melting point does the source give for `COCCc1nc2c(N)nc3ccccc3c2n1CCOCCN(C)C(=O)N1CCOCC1` here?
Answer: 122 °C

Question: Which melting point does the source give for `CC1(O)CSC(=S)N1c1ccccn1` (stereo unspecified) here?
Answer: 120 °C

Question: With `CCCCc1ncc(/C=C(\Cc2cccs2)c2nnn[nH]2)n1Cc1cccc(Cl)c1Cl` as the molecule, how does the melting point read?
Answer: 204 to 205 °C

Question: With `CCOC(=O)C=C(C)Nc1ccc(OC)c(OC)c1` as the molecule, how does the melting point read?
Answer: 57 to 58 °C

Question: With `C=CCNCC(O)COc1cccc2c1CC(=O)N2` (stereo unspecified) as the molecule, how does the melting point read?
Answer: 124 to 127 °C

Question: Which melting point does the source give for `CNc1nc(C)c(-c2cccnc2)s1` here?
Answer: 152 to 153 °C

Question: With `CC1(C)CCc2c(N3CCSCC3)nc3sc4c(NCc5ccncc5)ncnc4c3c2C1` as the molecule, how does the melting point read?
Answer: 237 °C

Question: Which melting point does the source give for `NC(CSCc1ccccc1C(=O)O)C(=O)O` (stereo unspecified) here?
Answer: 252 to 254 °C
